{"source": "patent US7071147B2", "about": "“Weed control process” (priority 2001, dated 2006)", "key": {"[1]": {"system": "Redroot pigweed (AMARE), normal wild variety (non-tolerant)", "assay": "Glasshouse postemergence herbicide test, percentage damage on normal wild (non-tolerant) plants", "format": "in vivo", "conditions": "rates of Table 1; 13 days after application", "excerpt": "(§1) The soil was a silty clay loam mixed with fertiliser (12-12-12) at the rate of 128 g fertiliser to 10 gallons of soil.\n(§2) The tolerant seeds were planted 13 days earlier than the non-tolerant seeds in order to get the seedlings to a similar size by the time the herbicide was applied. The time difference in planting was based on earlier observations of germination speed. On application of the herbicides, the tolerant plants had reached the 6-9 leaf stage, and the non-tolerant plants the 5-leaf stage.\n(§3) Herbicide solutions were made by dissolving the herbicide(s) in tap water containing 0.5% of a commercial surfactant, ‘Tween 20’. The solutions were applied at […] and 40 p.s.i pressure, using an 80015E nozzle. After spraying, the plants were placed in a glasshouse at 29/20° C. day/night temperature and 45/65% day/night relative humidity and a photoperiod of 14 hours.\n(§4) The figures in the mesotrione and atrazine columns are g/ha of herbicide applied to the test pots. The figures in the subsequent columns are percentage damage observed 13 days after application of the relevant herbicide composition. The numbers range from 0 (no effect) to 100 (dead plants). The main area of focus for the present invention is the effect on tolerant plants, and the effect on non-tolerant plants was only measured for comparative purposes."}, "[2]": {"system": "Redroot pigweed (AMARE), variant known to exhibit triazine tolerance", "format": "in vivo", "conditions": "13 days after application; for effect on tolerant plants (in words): rates of Table 1", "excerpt": "as §1, §2, §3, §4"}}, "data": [{"smiles": "CS(=O)(=O)c1ccc(C(=O)C2C(=O)CCCC2=O)c([N+](=O)[O-])c1", "note": "[mesotrione]", "values": [{"measurement": "effect on non-tolerant plants (in words)", "setting": "[1]", "result": "causes damage"}, {"measurement": "damage level on tolerant plants", "setting": "[2]; 0.90 g/ha mesotrione alone", "result": 2}, {"measurement": "effect on tolerant plants (in words)", "setting": "[2]", "result": "causes damage"}]}, {"smiles": "CCNc1nc(Cl)nc(NC(C)C)n1", "note": "[Atrazine, atrazine]", "values": [{"measurement": "effect on non-tolerant plants (in words)", "setting": "[1]", "result": "significantly damaging"}, {"measurement": "effect on tolerant plants (in words)", "setting": "[2]", "result": "no effect at all"}]}]}
